# Source: patent US8853418B2, “Cyclopentylpyrazoles as N-type calcium channel blockers” (Janssen Pharmaceutica NV, priority 2012, dated 2014)
# Where two headings read alike, the source gives them in different places.
# Target: N-type calcium channel (α1B (Cav2.2), β3 and α2δ subunits) (Homo sapiens, UniProt Q00975)
# Test: Functional Assay: Antagonism of N-Type Calcium Channel (FDSS calcium mobilization, KCl depolarization)
# Format: cell-based
# Settings: for IC50: HEK cell line, 50 mM KCl depolarization, six-point concentration-response, read-out: FDSS IC50
# Method: A stable cell line (HEK parent) co-expressing the α1B (Cav2.2), β3 and α2δ subunits of the N-type calcium channel subunits was used. These cells were routinely grown as monolayers in low glucose-containing Dulbecco's Modified Eagle Medium supplemented with 10% FBS, 2 mM L-glutamine, 100 I.U./mL penicillin, 100 μg/mL streptomycin, 400 μg/mL G418 and 200 μg/mL Zeocin (split ratio=1:5). Cells were maintained in 5% CO2 at 37° C. Compounds of Formula (I) were prepared as 10 mM stocks in DMSO from neat compound, if available. Otherwise, the 5 or 10 mM DMSO stock solutions provided in-house were used.
# Calcium mobilization responses to KCl depolarization were evaluated by measuring the intensity of calcium-mediated fluorescent signal in the presence of BD Calcium Assay Dye (BD Biosciences, Franklin Lakes, N.J., U.S.A.), utilizing a Functional Drug Screening System (FDSS) by Hamamatsu Corporation (Bridgewater, N.J. U.S.A.).
# Twenty-four hr prior to assay, cells were seeded in clear-base poly-D-lysine-coated 384-well plates (BD Biosciences) at a density of 5,000 cells per well in culture medium and grown overnight in 5% CO2 at 37° C. On the day of assay, growth media were removed, and cells were loaded with BD calcium assay dye (BD Biosciences) for 35 min at 37° C. under 5% CO2 and then for 25 min at room temp. Utilizing the FDSS, cells were exposed to representative compounds of Formula (I) at varying concentrations, and intracellular calcium was measured for 5 min prior to the addition of 50 mM KCl for an additional 3 min of measurement.
# Calculations and Formulas
# IC50 values for representative compounds of Formula (I) were determined from six-point concentration-response experiments and represent the concentration of said compound required to inhibit 50% of the maximal response. Maximal fluorescence intensity (FI) achieved upon addition of 50 mM KCl was exported from the FDSS software and further analyzed using GraphPad Prism 3.02 (Graph Pad Software Inc., San Diego, Calif., U.S.A.). Data were normalized to the maximum average counts from quadruplicate wells for each condition in the presence of 50 mM KCl and to the minimum average counts in the presence of buffer. Theoretical curves were generated using nonlinear regression curve-fitting analysis of either sigmoidal concentration-response or sigmoidal concentration-response (variable slope), and the IC50 values with the best-fit curve determined by GraphPad Prism were reported.
# Chain of N-type calcium channel (α1B (Cav2.2), β3 and α2δ subunits) (Q00975 whole entry): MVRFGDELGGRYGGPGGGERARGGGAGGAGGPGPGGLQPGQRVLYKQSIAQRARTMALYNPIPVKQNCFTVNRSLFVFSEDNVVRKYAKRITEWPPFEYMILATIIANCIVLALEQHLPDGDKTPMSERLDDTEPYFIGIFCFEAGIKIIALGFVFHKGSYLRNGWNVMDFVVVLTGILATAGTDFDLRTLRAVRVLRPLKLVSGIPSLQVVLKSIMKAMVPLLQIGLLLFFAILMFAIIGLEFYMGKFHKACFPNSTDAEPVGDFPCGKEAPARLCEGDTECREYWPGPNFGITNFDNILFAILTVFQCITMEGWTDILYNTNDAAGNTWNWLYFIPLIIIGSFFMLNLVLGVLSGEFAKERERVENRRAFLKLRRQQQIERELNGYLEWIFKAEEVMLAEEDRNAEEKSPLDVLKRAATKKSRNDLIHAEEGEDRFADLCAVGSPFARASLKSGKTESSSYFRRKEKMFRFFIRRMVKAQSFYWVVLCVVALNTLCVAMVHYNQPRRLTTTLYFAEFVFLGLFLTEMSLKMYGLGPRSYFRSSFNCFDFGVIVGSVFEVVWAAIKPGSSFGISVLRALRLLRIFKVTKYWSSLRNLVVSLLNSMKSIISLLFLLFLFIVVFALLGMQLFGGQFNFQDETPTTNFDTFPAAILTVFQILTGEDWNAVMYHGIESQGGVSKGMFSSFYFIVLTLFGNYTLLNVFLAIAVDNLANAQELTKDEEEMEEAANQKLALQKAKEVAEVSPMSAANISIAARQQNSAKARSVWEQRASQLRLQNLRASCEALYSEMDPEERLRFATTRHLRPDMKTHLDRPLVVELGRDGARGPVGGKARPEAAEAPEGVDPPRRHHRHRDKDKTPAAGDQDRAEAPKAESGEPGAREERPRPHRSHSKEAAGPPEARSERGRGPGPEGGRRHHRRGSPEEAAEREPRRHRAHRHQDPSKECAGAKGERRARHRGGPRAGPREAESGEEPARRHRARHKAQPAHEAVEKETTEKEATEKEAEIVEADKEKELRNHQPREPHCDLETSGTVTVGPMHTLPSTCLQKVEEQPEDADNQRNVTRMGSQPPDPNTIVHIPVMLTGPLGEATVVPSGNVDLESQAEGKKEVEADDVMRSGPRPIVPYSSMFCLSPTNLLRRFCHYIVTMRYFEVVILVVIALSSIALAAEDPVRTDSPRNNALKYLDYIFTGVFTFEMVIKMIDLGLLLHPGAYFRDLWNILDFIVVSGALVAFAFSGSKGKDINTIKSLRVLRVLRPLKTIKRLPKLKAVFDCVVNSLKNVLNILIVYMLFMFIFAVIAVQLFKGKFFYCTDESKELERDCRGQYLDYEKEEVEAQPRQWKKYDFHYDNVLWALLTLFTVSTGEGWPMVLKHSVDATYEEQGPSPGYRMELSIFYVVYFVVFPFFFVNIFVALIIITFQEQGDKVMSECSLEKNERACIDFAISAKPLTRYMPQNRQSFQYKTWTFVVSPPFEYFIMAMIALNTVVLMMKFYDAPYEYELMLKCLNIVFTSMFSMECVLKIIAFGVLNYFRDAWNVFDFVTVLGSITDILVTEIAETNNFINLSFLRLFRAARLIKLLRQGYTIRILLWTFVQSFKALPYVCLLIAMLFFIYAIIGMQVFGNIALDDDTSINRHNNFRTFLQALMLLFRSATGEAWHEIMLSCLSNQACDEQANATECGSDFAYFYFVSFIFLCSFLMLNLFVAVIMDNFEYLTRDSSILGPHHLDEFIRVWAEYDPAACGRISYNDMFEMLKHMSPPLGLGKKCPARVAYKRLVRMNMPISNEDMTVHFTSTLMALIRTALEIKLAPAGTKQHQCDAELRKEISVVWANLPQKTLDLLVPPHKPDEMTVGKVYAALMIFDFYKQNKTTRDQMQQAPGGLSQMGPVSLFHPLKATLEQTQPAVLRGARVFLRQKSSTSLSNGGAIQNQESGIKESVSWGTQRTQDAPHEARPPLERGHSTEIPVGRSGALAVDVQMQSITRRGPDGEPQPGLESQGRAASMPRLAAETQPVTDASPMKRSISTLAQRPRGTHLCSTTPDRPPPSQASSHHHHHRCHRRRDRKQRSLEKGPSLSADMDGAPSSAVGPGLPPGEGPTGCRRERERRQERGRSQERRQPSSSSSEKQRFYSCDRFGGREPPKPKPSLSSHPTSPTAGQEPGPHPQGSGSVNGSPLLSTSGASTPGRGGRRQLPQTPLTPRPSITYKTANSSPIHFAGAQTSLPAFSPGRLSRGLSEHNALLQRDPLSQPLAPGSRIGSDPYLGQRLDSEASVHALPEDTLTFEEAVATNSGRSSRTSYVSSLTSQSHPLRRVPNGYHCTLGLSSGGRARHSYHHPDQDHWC
# Chain of N-type calcium channel (α1B (Cav2.2), β3 and α2δ subunits) (P54284 whole entry partner): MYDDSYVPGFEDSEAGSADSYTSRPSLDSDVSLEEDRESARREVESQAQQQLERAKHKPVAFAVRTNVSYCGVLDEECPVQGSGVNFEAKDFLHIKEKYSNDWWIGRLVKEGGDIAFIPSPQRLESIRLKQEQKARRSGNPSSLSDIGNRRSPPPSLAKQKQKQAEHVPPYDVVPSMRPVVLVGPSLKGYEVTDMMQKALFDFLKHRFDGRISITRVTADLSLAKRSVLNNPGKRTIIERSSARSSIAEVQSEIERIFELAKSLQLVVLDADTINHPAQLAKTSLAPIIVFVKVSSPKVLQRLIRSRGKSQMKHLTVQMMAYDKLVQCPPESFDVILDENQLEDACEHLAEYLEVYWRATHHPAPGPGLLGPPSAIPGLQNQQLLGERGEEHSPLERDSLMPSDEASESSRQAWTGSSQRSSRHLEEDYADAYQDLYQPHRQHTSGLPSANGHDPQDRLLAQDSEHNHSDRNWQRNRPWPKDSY
# Chain of N-type calcium channel (α1B (Cav2.2), β3 and α2δ subunits) (P54289 25-946 partner limits assumed): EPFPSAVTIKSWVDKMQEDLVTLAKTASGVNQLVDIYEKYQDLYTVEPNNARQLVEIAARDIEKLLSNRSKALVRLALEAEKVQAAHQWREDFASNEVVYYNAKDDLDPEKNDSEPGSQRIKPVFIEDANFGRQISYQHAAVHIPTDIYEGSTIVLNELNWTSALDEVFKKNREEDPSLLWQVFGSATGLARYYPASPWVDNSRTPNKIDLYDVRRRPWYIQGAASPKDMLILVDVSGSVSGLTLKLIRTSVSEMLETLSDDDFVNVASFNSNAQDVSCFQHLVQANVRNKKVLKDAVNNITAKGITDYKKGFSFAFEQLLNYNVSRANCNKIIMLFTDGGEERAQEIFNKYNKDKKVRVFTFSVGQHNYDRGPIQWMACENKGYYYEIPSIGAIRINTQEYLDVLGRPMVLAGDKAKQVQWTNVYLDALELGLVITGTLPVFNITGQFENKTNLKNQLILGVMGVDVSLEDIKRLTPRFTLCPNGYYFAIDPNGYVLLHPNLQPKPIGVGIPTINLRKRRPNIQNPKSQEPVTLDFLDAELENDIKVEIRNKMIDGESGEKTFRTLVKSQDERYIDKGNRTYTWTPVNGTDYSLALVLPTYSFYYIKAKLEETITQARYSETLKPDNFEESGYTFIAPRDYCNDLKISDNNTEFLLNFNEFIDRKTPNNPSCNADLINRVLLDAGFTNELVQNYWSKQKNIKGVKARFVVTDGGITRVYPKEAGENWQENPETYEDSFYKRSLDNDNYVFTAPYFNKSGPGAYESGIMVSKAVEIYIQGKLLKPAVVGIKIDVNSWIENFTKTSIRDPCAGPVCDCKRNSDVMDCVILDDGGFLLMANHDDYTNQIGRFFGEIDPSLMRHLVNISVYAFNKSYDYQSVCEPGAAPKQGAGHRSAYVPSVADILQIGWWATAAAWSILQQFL
# Chain of N-type calcium channel (α1B (Cav2.2), β3 and α2δ subunits) (P54289 947-1103 partner limits assumed): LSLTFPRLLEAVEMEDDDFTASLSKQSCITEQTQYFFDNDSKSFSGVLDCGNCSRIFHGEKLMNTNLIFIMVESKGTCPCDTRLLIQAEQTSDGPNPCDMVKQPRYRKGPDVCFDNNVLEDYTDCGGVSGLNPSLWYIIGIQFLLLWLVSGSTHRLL
inhibition at 0.33 µM (0.33 μM) [%],IC50 [nM],inhibition at 1 µM [%],Structure (SMILES),inhibition at 0.33 µM [%]
68,–,–,"COc1ccccc1-n1nc2c(c1-c1ccccc1)CC(CNS(C)(=O)=O)C2 (centres unmarked) [Compound 7, N-{[2-(2-methoxyphenyl)-3-phenyl-2,4,5,6-tetrahydrocyclopenta[c]pyrazol-5-yl]methyl}methanesulfonamide]",–
75,44,–,"COc1ccccc1-n1nc2c(c1-c1ccc(Cl)cc1)CC(N1CCC(C)CC1)C2 (centres unmarked) [Compound 117, 3-(4-chlorophenyl)-2-(2-methoxyphenyl)-5-(4-methylpiperidin-1-yl)-2,4,5,6-tetrahydrocyclopenta[c]pyrazole]",–
89,16,–,"CCc1nnn([C@@H]2Cc3nn(-c4ccccc4OC)c(-c4ccc(C#N)cc4)c3C2)c1CC [Compound 136, 4-[(5S)-5-(4,5-diethyl-1H-1,2,3-triazol-1-yl)-2-(2-methoxyphenyl)-2,4,5,6-tetrahydrocyclopenta[c]pyrazol-3-yl]benzonitrile]",–
81,60,–,"CCOc1ccc(-c2c3c(nn2-c2ccccc2OC)CC2(C3)OCC(C)(C)CO2)cn1 [Compound 94, 3-(6-ethoxypyridin-3-yl)-2-(2-methoxyphenyl)-5′,5′-dimethyl-2,6-dihydro-4H-spiro[cyclopenta[c]pyrazole-5,2′-[1,3]dioxane]]",–
–,200,–,"CCc1ccccc1-n1nc2c(c1-c1ccc(Cl)cc1)CC(CNS(C)(=O)=O)C2 (centres unmarked) [Compound 18, N-{[3-(4-chlorophenyl)-2-(2-ethylphenyl)-2,4,5,6-tetrahydrocyclopenta[c]pyrazol-5-yl]methyl}methanesulfonamide]",–
–,–,81,"C=CCC1Cc2nn(-c3ccccc3OC)c(-c3ccc(Cl)cc3)c2C1 (centres unmarked) [Compound 4, 3-(4-chlorophenyl)-2-(2-methoxyphenyl)-5-prop-2-en-1-yl-2,4,5,6-tetrahydrocyclopenta[c]pyrazole]",–
–,300,–,"CCc1ccccc1-n1nc2c(c1-c1ccc(Cl)cc1)CC(/C=N\C(=O)OC(C)(C)C)C2 (racemic) [Compound 15, tert-butyl{[3-(4-chlorophenyl)-2-(2-ethylphenyl)-2,4,5,6-tetrahydrocyclopenta[c]pyrazol-5-yl]methylidene}carbamate]",–
31,–,–,"COc1ccccc1-n1nc2c(c1-c1ccc(Cl)cc1)C/C(=N/O)C2 [Compound 53, (5Z)-3-(4-chlorophenyl)-2-(2-methoxyphenyl)-2,6-dihydrocyclopenta[c]pyrazol-5(4H)-one oxime]",–
62,280,–,"COc1ccccc1-n1nc2c(c1-c1ccc(Cl)cc1)CC(c1ccc(OC(C)C)nc1)C2 (centres unmarked) [Compound 60, 3-(4-chlorophenyl)-2-(2-methoxyphenyl)-5-[6-(1-methylethoxy)pyridin-3-yl]-2,4,5,6-tetrahydrocyclopenta[c]pyrazole]",–
82,92,–,"COc1ccccc1-n1nc2c(c1-c1ccc(Cl)cc1)C[C@H](OCC1CCOCC1)C2 [Compound 87, (5S)-3-(4-chlorophenyl)-2-(2-methoxyphenyl)-5-(tetrahydro-2H-pyran-4-ylmethoxy)-2,4,5,6-tetrahydrocyclopenta[c]pyrazole]",–
–,150,–,"O=C(OC1Cc2nn(-c3ccccc3OC(F)(F)F)c(-c3ccc(Cl)cc3)c2C1)N1CCOCC1 (centres unmarked) [Compound 24, 3-(4-chlorophenyl)-2-[2-(trifluoromethoxy)phenyl]-2,4,5,6-tetrahydrocyclopenta[c]pyrazol-5-ylmorpholine-4-carboxylate]",–
82,82,–,"COc1ccccc1-n1nc2c(c1-c1ccc(Cl)cc1)C[C@H](OC(=O)C1CCOCC1)C2 [Compound 86, (5S)-3-(4-chlorophenyl)-2-(2-methoxyphenyl)-2,4,5,6-tetrahydrocyclopenta[c]pyrazol-5-yl tetrahydro-2H-pyran-4-carboxylate]",–
–,–,61,"OC1Cc2nn(-c3ccccc3OC(F)(F)F)c(-c3ccc(Cl)cc3)c2C1 (centres unmarked) [Compound 25, 3-(4-chlorophenyl)-2-[2-(trifluoromethoxy)phenyl]-2,4,5,6-tetrahydrocyclopenta[c]pyrazol-5-ol]",–

# The next lines start with the molecule.
Structure (SMILES),inhibition at 0.33 µM (0.33 μM) [%],IC50 [nM],inhibition at 1 µM [%],inhibition at 0.33 µM [%]
"COCc1cn([C@@H]2Cc3nn(-c4ccccc4OC)c(-c4ccc(C#N)cc4)c3C2)nn1 [Compound 129, 4-[(5S)-5-[4-(methoxymethyl)-1H-1,2,3-triazol-1-yl]-2-(2-methoxyphenyl)-2,4,5,6-tetrahydrocyclopenta[c]pyrazol-3-yl]benzonitrile]",47,–,–,–
"COc1ccccc1-n1nc2c(c1-c1ccc(Cl)cc1)CC(C(C)C)C2 (centres unmarked) [Compound 92, 3-(4-chlorophenyl)-2-(2-methoxyphenyl)-5-(1-methylethyl)-2,4,5,6-tetrahydrocyclopenta[c]pyrazole]",–,–,–,43
"COc1ccccc1-n1nc2c(c1-c1ccc(Cl)cc1)CC(C1CCC(C)(C)CC1)C2 (centres unmarked) [Compound 64, 3-(4-chlorophenyl)-5-(4,4-dimethylcyclohexyl)-2-(2-methoxyphenyl)-2,4,5,6-tetrahydrocyclopenta[c]pyrazole]",66,280,–,–
"CCOc1ccc(C2Cc3nn(-c4ccccc4OC)c(-c4ccc(Cl)cc4)c3C2)cn1 (centres unmarked) [Compound 74, 3-(4-chlorophenyl)-5-(6-ethoxypyridin-3-yl)-2-(2-methoxyphenyl)-2,4,5,6-tetrahydrocyclopenta[c]pyrazole]",61,150,–,–
"COc1ccccc1-n1nc2c(c1-c1ccc(Cl)cc1)C[C@H](OCC1CCCC1)C2 [Compound 83, (5S)-3-(4-chlorophenyl)-5-(cyclopentylmethoxy)-2-(2-methoxyphenyl)-2,4,5,6-tetrahydrocyclopenta[c]pyrazole]",–,49,–,92
"COc1ccccc1-n1nc2c(c1-c1ccccc1)CC(C#N)C2 (centres unmarked) [Compound 9, 2-(2-methoxyphenyl)-3-phenyl-2,4,5,6-tetrahydrocyclopenta[c]pyrazole-5-carbonitrile]",59,–,–,–
"COc1ccccc1-n1nc2c(c1-c1ccc(Cl)cc1)CC(c1ccc(C3CC3)nc1)C2 (centres unmarked) [Compound 77, 3-(4-chlorophenyl)-5-(6-cyclopropylpyridin-3-yl)-2-(2-methoxyphenyl)-2,4,5,6-tetrahydrocyclopenta[c]pyrazole]",81,62,–,–
"COc1ccccc1-n1nc2c(c1-c1ccc(Cl)cc1)CC(N1CCC(C)(C)C1)C2 (centres unmarked) [Compound 119, 3-(4-chlorophenyl)-5-(3,3-dimethylpyrrolidin-1-yl)-2-(2-methoxyphenyl)-2,4,5,6-tetrahydrocyclopenta[c]pyrazole]",76,84,–,–
"CCc1nc(C)n([C@@H]2Cc3nn(-c4ccccc4OC)c(-c4ccc(C#N)cc4)c3C2)c1CC [Compound 138, 4-[(5S)-5-(4,5-diethyl-2-methyl-1H-imidazol-1-yl)-2-(2-methoxyphenyl)-2,4,5,6-tetrahydrocyclopenta[c]pyrazol-3-yl]benzonitrile]",63,320,–,–
"COc1ccccc1-n1nc2c(c1-c1ccc(Cl)cc1)C[C@H](Oc1ccccc1)C2 [Compound 58, (5S)-3-(4-chlorophenyl)-2-(2-methoxyphenyl)-5-phenoxy-2,4,5,6-tetrahydrocyclopenta[c]pyrazole]",65,130,–,–
"COc1ccccc1-n1nc2c(c1-c1ccc(Cl)s1)CC1(C2)OC(C)(C)C(C)(C)O1 [Compound 121, 3-(5-chlorothiophen-2-yl)-2-(2-methoxyphenyl)-4′,4′,5′,5′-tetramethyl-2,6-dihydro-4H-spiro[cyclopenta[c]pyrazole-5,2′-[1,3]dioxolane]]",86,30,–,–
"COc1ccccc1-n1nc2c(c1-c1ccc(Cl)cc1)CC(C(N)=O)C2 (centres unmarked) [Compound 6, 3-(4-chlorophenyl)-2-(2-methoxyphenyl)-2,4,5,6-tetrahydrocyclopenta[c]pyrazole-5-carboxamide]",75,490,–,–
"CCC(CC)CO[C@@H]1Cc2nn(-c3ccccc3OC)c(-c3ccc(Cl)cc3)c2C1 [Compound 72, (5S)-3-(4-chlorophenyl)-5-(2-ethylbutoxy)-2-(2-methoxyphenyl)-2,4,5,6-tetrahydrocyclopenta[c]pyrazole]",78,61,–,–
"CCC1(CC)CCN(C2Cc3nn(-c4ccccc4OC)c(-c4ccc(Cl)cc4)c3C2)C1 (centres unmarked) [Compound 118, 3-(4-chlorophenyl)-5-(3,3-diethylpyrrolidin-1-yl)-2-(2-methoxyphenyl)-2,4,5,6-tetrahydrocyclopenta[c]pyrazole]",76,46,–,–
